The assay addresses T1, Wuhan variant RBD-Fc / ACE2 interaction (Homo sapiens, UniProt Q9BYF1).
T1 construct: purchased RayBiotech
Description: biochemical. The following applies: read-out: percentage of inhibition of RBD binding to ACE2.

Starred links: 1 amine or outer side, 2 acyl side, 3 side chain; linkers in the order of their positions; H or OH if unused. Positions of bridges follow the written chain, without caps; N, C: chain ends. Residues, ends and D or L forms follow the SMILES beside them. mXylylene = c1cc(C[*:1])cc(C[*:2])c1

As usually defined, the inhibition is the share of the control response that was lost under treatment. Consider `C[C@@H](O)[C@@H]1NC(=O)[C@@H]2CCCN2C(=O)[C@H](CCC(N)=O)NC(=O)[C@@H](N)CSCc2cccc(c2)CSC[C@@H](C(N)=O)NC(=O)[C@H](CCC(N)=O)NC(=O)[C@H](Cc2c[nH]c3ccccc23)NC(=O)CNC(=O)[C@H](CCCCN)NC(=O)CNC(=O)[C@H](CC(N)=O)NC1=O` [c9_05] (H-CQPTNGKGWQC-NH2; linker 1-11 via mXylylene), for which the inhibition at 100 µM was determined as 78%.

Values taken from article PMC10418426, “A Comprehensive Technology Platform for the Rapid Discovery of Peptide Inhibitors against SARS-CoV-2 Pseudovirus Infection” (International Journal of Molecular Sciences, 2023).
